How the values were obtained:
[1] = Concentrations of byproducts diphosphate and tetraphosphate in nucleotide solutions vs HPBCD, magnesium ions and nucleotides (FIG. 15); format: physicochemical; settings: solutions with buffer, polymerase and oligonucleotide template
From the text: A precipitate was formed and a color change of solution was observed when nucleotides (3′-blocked and 3′-OH), which were coupled to different fluorescent dyes, were mixed with polishing polymerase, a template, magnesium ions (from magnesium acetate), and a buffer. The change in color was interpreted as the solution having a reduced concentration of fluorescent dyes, and the precipitate was interpreted as being an aggregation of the nucleotides coupled to the fluorescent dyes. […] The plots described below with reference to FIGS. 12-15 were obtained by using the measured normalized intensities, together with the corresponding concentrations of different solution components, in a model that interpolated the behavior of the solution system for additional concentrations. […]
FIG. 15 includes plots of the concentrations of different byproducts as a function of concentrations of the modified β-cyclodextrin HPBCD, of magnesium ions, and of the fluorescently labeled nucleotides FFA-1, FFA-3, and FFC-1. More specifically, the respective concentrations of diphosphate and tetraphosphate in the solutions were measured and used in the above-noted models. […]

[2] = Observation of precipitate and color change of dye-coupled nucleotide solutions with polishing polymerase, template, magnesium ions and buffer; format: physicochemical; settings: HPBCD added to dye-coupled nucleotides, magnesium ions (magnesium acetate) and buffer
From the text: A precipitate was formed and a color change of solution was observed when nucleotides (3′-blocked and 3′-OH), which were coupled to different fluorescent dyes, were mixed with polishing polymerase, a template, magnesium ions (from magnesium acetate), and a buffer. The change in color was interpreted as the solution having a reduced concentration of fluorescent dyes, and the precipitate was interpreted as being an aggregation of the nucleotides coupled to the fluorescent dyes. […] From this it was inferred that modified α-cyclodextrins (such as (2-hydroxypropyl)-α-cyclodextrin), other modified β-cyclodextrins (such as […], HEBCD), or modified γ-cyclodextrins (such as (2-hydroxypropyl)-γ-cyclodextrin) may promote solubility of the nucleotides and/or of the fluorescent dyes. A series of solutions were prepared in which the concentration of magnesium ions was varied between 0 and 6.3 mM, the concentration of HPBCD was varied between 0% and 10% (w/v), and the concentration of nucleotides including fluorescent dyes was varied between 0.5 and 1.5 mM. […] The plots described below with reference to FIGS. 12-15 were obtained by using the measured normalized intensities, together with the corresponding concentrations of different solution components, in a model that interpolated the behavior of the solution system for additional concentrations. […]

CC(O)COC[C@H]1O[C@@H]2O[C@H]3[C@H](O)[C@@H](O)[C@@H](O[C@H]4[C@H](O)[C@@H](O)[C@@H](O[C@H]5[C@H](O)[C@@H](O)[C@@H](O[C@H]6[C@H](O)[C@@H](O)[C@@H](O[C@H]7[C@H](O)[C@@H](O)[C@@H](O[C@H]8[C@H](O)[C@@H](O)[C@@H](O[C@H]1[C@H](O)[C@H]2O)O[C@@H]8COCC(C)O)O[C@@H]7COCC(C)O)O[C@@H]6COCC(C)O)O[C@@H]5COCC(C)O)O[C@@H]4COCC(C)O)O[C@@H]3COCC(C)O (stereo partly drawn) [HPBCD, (2-hydroxypropyl)-β-cyclodextrin]
effect on formation of byproducts (diphosphate, tetraphosphate) [1]: suppressed the formation of different byproducts
precipitate formation and color change of solution [2]: did not form a precipitate or change color

Reference: patent US20220389500A1, “PURIFYING AND POLYMERIZING 3'-BLOCKED NUCLEOTIDES” (ILLUMINA, INC., priority 2021, published 2022)
